Results on 3 molecules are retold here after patent US20250255867A1 (Kadmon Corporation, LLC, priority 2022, published 2025).

Structures can show the parent of a compound that is named as a salt.

The nature of data set [1]: Solubility of belumosudil mesylate. The format is physicochemical.
Data set [2] in a line: Example 1: plasma pharmacokinetics (Cmax, Tmax, AUC0-6 hr) of belumosudil and metabolites. The format is in vivo, human. The method, then:
Cmax was the maximum observed plasma concentration, obtained by a non-compartmental analysis. […] Timeframe: Cycles 1 and 2: pre-dose (0 hour), 1, 2, 3, 4, 5, and 6 hours post-dose on Day 1. […] Here, ‘number analyzed’=participants with available data for each specified category.
Tmax was defined as time to reach maximum observed plasma concentration, obtained by a non-compartmental analysis. […] Timeframe: Cycles 1 and 2: pre-dose (0 hour), 1, 2, 3, 4, 5, and 6 hours post-dose on Day 1. Analysis was performed on PK population. Here, ‘number analyzed’=participants with available data for each specified category.
AUC0-6 hr was defined as area under the plasma concentration versus time curve from time 0 to 6 hours post-dose, obtained by a non-compartmental analysis from the concentration-time data. […] Timeframe: Cycles 1 and 2: pre-dose (0 hour), 1, 2, 3, 4, 5, and 6 hours post-dose on Day 1. Analysis was performed on PK population. Here, ‘number analyzed’=participants with available data for each specified category.

Where [3] appears, read: Cohort 1: Belumosudil 200 mg QD, Cycle 1 Day 1.
Where [4] appears, read: Cohort 1: Belumosudil 200 mg QD, Cycle 2 Day 1.
Setting [5] is: Cohort 2: Belumosudil 200 mg BID, Cycle 1 Day 1.
The mark [6] stands for this setting: Cohort 2: Belumosudil 200 mg BID, Cycle 2 Day 1.
[7] abbreviates: Cohort 3: Belumosudil 400 mg QD, Cycle 1 Day 1.
[8] abbreviates: Cohort 3: Belumosudil 400 mg QD, Cycle 2 Day 1.

Consider `CC(C)NC(=O)COc1cccc(-c2nc(Nc3ccc4[nH]ncc4c3)c3ccccc3n2)c1` [Belumosudil mesylate, 2-{3-[4-(1H-indazol-5-ylamino)-2-quinazolinyl]phenoxy}-N-(propan-2-yl) acetamide methanesulfonate (1:1)], for which, in data set [1], the “Solubility in DMF” value is given as “slightly soluble”, the “Solubility in DMSO” value is on record as “soluble”, the Solubility in methanol result is “slightly soluble” and the Solubility in water entry is reported as “practically insoluble”.

As for `NC(=O)COc1cccc(-c2nc(Nc3ccc4[nH]ncc4c3)c3ccccc3n2)c1` [KD025m1], the “Area Under the Plasma Concentration Versus Time Curve From Time 0 to 6 Hours Post-dose (AUC0-6 hr), Geometric Mean (Geometric Coefficient of Variation)” value in data set [2] (setting [3]) is given as 140 (72.3%) hours*nanograms per milliliter; in data set [2] (setting [4]), 123 (38.2%) hours*nanograms per milliliter; in data set [2] (setting [5]), 114 (60.8%) hours*nanograms per milliliter; in data set [2] (setting [6]), 160 (31.3%) hours*nanograms per milliliter; in data set [2] (setting [7]) it was 216 (61.9%) hours*nanograms per milliliter; in data set [2] (setting [8]), 178 (72.9%) hours*nanograms per milliliter. In addition, the “Maximum Observed Plasma Concentration (Cmax), Geometric Mean (Geometric Coefficient of Variation)” value is given as 44.4 (67.9%) nanograms per milliliter in data set [2] (setting [3]); 36.2 (43.0%) nanograms per milliliter in data set [2] (setting [4]); 34.8 (58.8%) nanograms per milliliter in data set [2] (setting [5]); 45.0 (38.6%) nanograms per milliliter in data set [2] (setting [6]); 63.9 (59.4%) nanograms per milliliter in data set [2] (setting [7]); 55.8 (82.1%) nanograms per milliliter in data set [2] (setting [8]).

As for `O=C(O)COc1cccc(-c2nc(Nc3ccc4[nH]ncc4c3)c3ccccc3n2)c1` [KD025m2], the “Area Under the Plasma Concentration Versus Time Curve From Time 0 to 6 Hours Post-dose (AUC0-6 hr), Geometric Mean (Geometric Coefficient of Variation)” value in data set [2] (setting [3]) is 565 (90.8%) hours*nanograms per milliliter; in data set [2] (setting [4]), 471 (145%) hours*nanograms per milliliter; in data set [2] (setting [5]) it was 282 (125%) hours*nanograms per milliliter; in data set [2] (setting [6]), 513 (122%) hours*nanograms per milliliter; in data set [2] (setting [7]), 1150 (97.1%) hours*nanograms per milliliter; in data set [2] (setting [8]), 923 (144%) hours*nanograms per milliliter. The “Maximum Observed Plasma Concentration (Cmax), Geometric Mean (Geometric Coefficient of Variation)” value is on record as 208 (93.1%) nanograms per milliliter in data set [2] (setting [3]); 158 (150%) nanograms per milliliter in data set [2] (setting [4]); 99.2 (112%) nanograms per milliliter in data set [2] (setting [5]); 145 (147%) nanograms per milliliter in data set [2] (setting [6]); 388 (82.3%) nanograms per milliliter in data set [2] (setting [7]); 265 (154%) nanograms per milliliter in data set [2] (setting [8]).
